Among the data in US9695192B2, “Fused heterocyclic compounds as ion channel modulators” (GILEAD SCIENCES, INC., priority 2011, dated 2017) are inhibition values, retold here.

In this assay the target is wild-type human cardiac sodium channel, hNav1.5 (Homo sapiens, UniProt Q14524). Nature of the assay: Late INa screening assay (QPatch whole cell patch clamp, tefluthrin-enhanced late sodium current). It counts as cell-based. The note with it: HEK293 hNav1.5, late INa activated with 10 μM Tefluthrin. As to the method: The late sodium current (Late INa) and peak sodium current (Peak INa) assays are performed on an automated electrophysiology platform, QPatch 16X (Sophion Bioscience, Copenhagen, Denmark), which uses the whole cell patch clamp technique to measure currents through the cell membrane of up to 16 cells at a time. The assay uses an HEK293 (human embryonic kidney) cell line heterologously expressing the wild-type human cardiac sodium channel, hNav1.5, purchased from Millipore (Billerica, Mass.). No beta subunits were coexpressed with the Na channel alpha subunit. Cells are maintained with standard tissue culture procedures and stable channel expression is maintained with 400 μg/mL Geneticin in the culture medium. Cells isolated for use on QPatch are incubated for 5 minutes in Detachin 1X (Genlantis, San Diego, USA) at 37° C. to ensure that 80-90% of the cells are single and not part of a cell cluster. Experiments are carried out at 23-25° C.
For both the Late INa and Peak INa assays, series resistance compensation is set to 100% and series resistance and whole-cell compensation are performed automatically. Currents are digitized at 25 kHz and low-pass filtered at 12 kHz and 10 kHz for the late and peak INa assays, respectively. Currents through open sodium channels are automatically recorded and stored in the Sophion Bioscience Oracle database (Sophion Bioscience, Copenhagen, Denmark). Analysis is performed using QPatch Assay and database software and data are compiled in Excel.
Compound stocks are routinely made by the Gilead Sample Bank in plastic vials to 10 mM in dimethyl sulfoxide (DMSO). In some cases, when compounds are not soluble in DMSO, they are made in 100% ethanol. Stocks are sonicated as necessary. The extracellular solution for screening Late INa is composed of: 140 mM NaCl, 4 mM KCl, 1.8 mM CaCl2, 0.75 mM MgCl2 and 5 mM HEPES with pH adjusted to 7.4 using NaOH. The intracellular solution used to perfuse the inside of the cells for both the Late INa and Peak INa assays contains: 120 mM CsF, 20 mM CsCl, 5 mM EGTA, 5 mM HEPES and pH adjusted to 7.4 with CsOH. Compounds are diluted in extracellular solution to 1 μM in glass vials and then transferred to glass well plates before robotic addition to the cells. A 0 mM Na extracellular solution (0 Na-ECF) is used at the end of each experiment for the Late INa and Peak INa assays to measure baseline current contains: 140 mM N-methyl-D-glucamine; 4 mM KCl; 1.8 mM CaCl2; 0.75 mM MgCl2; 5 mM HEPES and pH was adjusted to 7.4 with HCl.
For the hNav1.5 Late INa assay, sodium channels are activated every 10 seconds (0.1 Hz) by depolarizing the cell membrane to −20 mV for 250 milliseconds (ms) from a holding potential of −120 mV. In response to a −20 mV voltage step, typical hNav1.5 sodium currents activate rapidly to a peak negative current and then inactivate nearly completely within 3-4 ms.
Compounds were tested to determine their activity in blocking the late sodium current. Late INa was generated by adding 10 μM Tefluthrin (pyrethroid) to the extracellular solution while recording Na currents. To confirm the block of late INa observed using the automated screening method, a second late INa enhancer (ATX-II) and the manual patch clamp method were used. ATX-II and tefluthrin occupy distinct, non-overlapping binding sites and modify Na^+ channel function differently to increase late INa. Compounds tested have been found generally to inhibit the enhanced late INa caused by either late INa enhancer. For the purposes of the screening, late INa is defined as the mean current between 225 ms and 250 ms after stepping to −20 mV to activate Na channels. After establishing the whole cell recording configuration, late INa activator is added to each well 4 times over a 16-17 minute period so that the late component of the Na current reaches a stable value. Compounds were then added (typically at 1 μM), in the presence of the late INa activator, with 3 additions over the course of 7 or 8 minutes. […]
A general note: Patch clamp records ionic current or voltage across a cell membrane.

Chain of wild-type human cardiac sodium channel, hNav1.5 (Q14524 whole entry): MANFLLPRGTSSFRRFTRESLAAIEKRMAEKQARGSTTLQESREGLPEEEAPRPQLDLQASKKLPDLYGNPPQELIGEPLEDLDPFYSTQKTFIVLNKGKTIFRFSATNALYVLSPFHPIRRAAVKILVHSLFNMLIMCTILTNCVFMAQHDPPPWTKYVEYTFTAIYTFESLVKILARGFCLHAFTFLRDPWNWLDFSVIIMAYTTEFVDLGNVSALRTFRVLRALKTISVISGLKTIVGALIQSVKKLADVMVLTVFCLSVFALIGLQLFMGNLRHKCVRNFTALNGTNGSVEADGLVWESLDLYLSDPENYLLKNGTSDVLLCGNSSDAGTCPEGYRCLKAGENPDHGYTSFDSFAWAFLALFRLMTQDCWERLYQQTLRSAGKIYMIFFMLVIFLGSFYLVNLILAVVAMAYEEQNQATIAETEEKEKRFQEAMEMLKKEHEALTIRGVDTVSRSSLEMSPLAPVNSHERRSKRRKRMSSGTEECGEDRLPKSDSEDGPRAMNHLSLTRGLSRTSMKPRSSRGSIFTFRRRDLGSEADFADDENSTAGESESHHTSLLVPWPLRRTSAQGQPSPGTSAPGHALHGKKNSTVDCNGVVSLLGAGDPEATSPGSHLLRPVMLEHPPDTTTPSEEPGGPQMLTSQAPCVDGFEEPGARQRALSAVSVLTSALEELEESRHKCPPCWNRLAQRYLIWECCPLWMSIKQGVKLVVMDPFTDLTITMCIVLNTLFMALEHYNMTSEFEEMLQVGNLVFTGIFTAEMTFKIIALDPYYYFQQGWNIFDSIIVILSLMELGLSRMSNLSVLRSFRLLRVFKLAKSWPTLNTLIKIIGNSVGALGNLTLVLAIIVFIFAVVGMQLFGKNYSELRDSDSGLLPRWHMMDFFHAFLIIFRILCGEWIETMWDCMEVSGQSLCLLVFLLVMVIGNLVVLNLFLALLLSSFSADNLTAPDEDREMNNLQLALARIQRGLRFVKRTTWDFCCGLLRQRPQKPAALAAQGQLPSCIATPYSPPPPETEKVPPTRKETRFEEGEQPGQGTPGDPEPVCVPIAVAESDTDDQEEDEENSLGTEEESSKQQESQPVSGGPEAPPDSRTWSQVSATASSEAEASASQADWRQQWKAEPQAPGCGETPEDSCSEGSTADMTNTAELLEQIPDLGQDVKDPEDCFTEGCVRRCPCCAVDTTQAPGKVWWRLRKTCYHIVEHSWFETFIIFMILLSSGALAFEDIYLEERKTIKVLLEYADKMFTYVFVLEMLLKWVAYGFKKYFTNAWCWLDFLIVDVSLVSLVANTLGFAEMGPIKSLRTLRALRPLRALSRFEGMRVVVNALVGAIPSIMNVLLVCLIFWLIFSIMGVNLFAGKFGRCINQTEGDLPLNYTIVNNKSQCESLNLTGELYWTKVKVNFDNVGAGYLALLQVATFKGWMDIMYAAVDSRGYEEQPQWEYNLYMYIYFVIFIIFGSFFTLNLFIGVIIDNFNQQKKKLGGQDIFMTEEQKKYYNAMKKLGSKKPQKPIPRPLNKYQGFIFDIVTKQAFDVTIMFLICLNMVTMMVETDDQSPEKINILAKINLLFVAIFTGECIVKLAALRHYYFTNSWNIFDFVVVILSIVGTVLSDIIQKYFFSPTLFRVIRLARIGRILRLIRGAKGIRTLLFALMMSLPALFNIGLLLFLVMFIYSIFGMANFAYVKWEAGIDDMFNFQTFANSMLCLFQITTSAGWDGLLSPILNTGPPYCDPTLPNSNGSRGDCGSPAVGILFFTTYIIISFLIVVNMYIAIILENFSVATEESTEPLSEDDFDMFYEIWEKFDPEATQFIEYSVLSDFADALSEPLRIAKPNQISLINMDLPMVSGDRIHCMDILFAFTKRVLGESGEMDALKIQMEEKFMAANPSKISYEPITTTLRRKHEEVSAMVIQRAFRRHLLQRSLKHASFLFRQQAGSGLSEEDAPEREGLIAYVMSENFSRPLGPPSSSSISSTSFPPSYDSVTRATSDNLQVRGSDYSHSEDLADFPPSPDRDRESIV

The inhibition is the change of the read-out against control, counted positive when it falls. As for `FC(F)(F)c1ccc(-c2ccc3c(c2)-c2nncn2CCO3)cc1` [Compound I-3, 10-(4-(trifluoromethyl)phenyl)-5,6-dihydrobenzo[f][1,2,4]triazolo[4,3-d][1,4]oxazepine], the inhibition at 1 µM is 13%.
Consider `Cc1nnc2n1CCOc1ccc(-c3ccc(C(F)(F)F)cc3)cc1-2` [Compound I-4, 3-methyl-10-(4-(trifluoromethyl)phenyl)-5,6-dihydrobenzo[f][1,2,4]triazolo[4,3-d][1,4]oxazepine], for which the inhibition at 1 µM was 10%.
On to `FC(F)(F)c1ccc(-c2ccc3c(c2)-c2nnc(C4CC4)n2CCO3)cc1` [Compound I-5, 3-cyclopropyl-10-(4-(trifluoromethyl)phenyl)-5,6-dihydrobenzo[f][1,2,4]triazolo[4,3-d][1,4]oxazepine], for which the inhibition at 1 µM was 18%.
With `FC(F)(F)c1ccc(-c2ccc3c(c2)-c2ncc(-c4ncccn4)n2CCO3)cc1` [Compound I-7, 3-(pyrimidin-2-yl)-10-(4-(trifluoromethyl)phenyl)-5,6-dihydrobenzo[f]imidazo[1,2-d][1,4]oxazepine] the figure was 17%; with `FC(F)(F)c1ccc(-c2ccc3c(c2)C2=NCCCN2CCO3)cc1` [Compound I-8, 11-(4-(trifluoromethyl)phenyl)-3,4,6,7-tetrahydro-2H-benzo[f]pyrimido[1,2-d][1,4]oxazepine], 9%; with `CC(=O)c1cnc2n1CCOc1ccc(-c3ccc(C(F)(F)F)cc3)cc1-2` [Compound I-15, 1-(10-(4-(trifluoromethyl)phenyl)-5,6-dihydrobenzo[f]imidazo[1,2-d][1,4]oxazepin-3-yl)ethanone], 12%.
Regarding `N#Cc1cnc2n1CCOc1ccc(-c3ccc(C(F)(F)F)cc3)cc1-2` [Compound I-16, 10-(4-(trifluoromethyl)phenyl)-5,6-dihydrobenzo[f]imidazo[1,2-d][1,4]oxazepine-3-carbonitrile], the inhibition at 1 µM is 1%.
On to `Cc1cnc2n1CCOc1ccc(-c3ccc(OC(F)(F)F)cc3)cc1-2` [Compound I-17, 3-methyl-10-(4-(trifluoromethoxy)phenyl)-5,6-dihydrobenzo[f]imidazo[1,2-d][1,4]oxazepine], for which the inhibition at 1 µM stood at 14%.
On to `FC(F)(F)Oc1ccc(-c2ccc3c(c2)-c2ncc(C4CC4)n2CCO3)cc1` [Compound I-18, 3-cyclopropyl-10-(4-(trifluoromethoxy)phenyl)-5,6-dihydrobenzo[f]imidazo[1,2-d][1,4]oxazepine], for which the inhibition at 1 µM was determined as 20%.
For `Cc1cn2c(n1)-c1cc(-c3ccc(C(F)(F)F)cc3)ccc1OCC2` [Compound I-19, 2-methyl-10-(4-(trifluoromethyl)phenyl)-5,6-dihydrobenzo[f]imidazo[1,2-d][1,4]oxazepine], the inhibition at 1 µM came to 13%.
`FC(F)(F)c1ccc(-c2ccc3c(c2)-c2nc(C4CC4)cn2CCO3)cc1` [Compound I-20, 2-cyclopropyl-10-(4-(trifluoromethyl)phenyl)-5,6-dihydrobenzo[f]imidazo[1,2-d][1,4]oxazepine]: the inhibition at 1 µM came to 12%.
With `O=C(O)c1cn2c(n1)-c1cc(-c3ccc(C(F)(F)F)cc3)ccc1OCC2` [Compound I-22, 10-(4-(trifluoromethyl)phenyl)-5,6-dihydrobenzo[f]imidazo[1,2-d][1,4]oxazepine-2-carboxylic acid], the inhibition at 1 µM is 5%.
As to `Cn1cncc1-c1cn2c(n1)-c1cc(-c3ccc(C(F)(F)F)cc3)ccc1OCC2` [Compound I-23, 2-(1-methyl-1H-imidazol-5-yl)-10-(4-(trifluoromethyl)phenyl)-5,6-dihydrobenzo[f]imidazo[1,2-d][1,4]oxazepine], the inhibition at 1 µM stood at 3%.
On to `FC(F)(F)c1ccc(-c2ccc3c(c2)C(N2CCOCC2)=NCCO3)cc1` [II-1, 5-morpholino-7-(4-(trifluoromethyl)phenyl)-2,3-dihydrobenzo[f][1,4]oxazepine], for which the inhibition at 1 µM turned out to be 21%.
On to `FC(F)(F)c1ccc(-c2ccc3c(c2)C(N2CCCC2)=NCCO3)cc1` [II-3, 5-(pyrrolidin-1-yl)-7-(4-(trifluoromethyl)phenyl)-2,3-dihydrobenzo[f][1,4]oxazepine], for which the inhibition at 1 µM was 25%.
`FC(F)(F)c1ccc(-c2ccc3c(c2)C(NC2CC2)=NCCO3)cc1` [II-4, N-cyclopropyl-7-(4-(trifluoromethyl)phenyl)-2,3-dihydrobenzo[f][1,4]oxazepin-5-amine]: the inhibition at 1 µM amounted to 25%.
As for `CN(Cc1ccccc1)C1=NCCOc2ccc(-c3ccc(C(F)(F)F)cc3)cc21` [II-5, N-benzyl-N-methyl-7-(4-(trifluoromethyl)phenyl)-2,3-dihydrobenzo[f][1,4]oxazepin-5-amine], the inhibition at 1 µM came out at 28%.
With `FC1(F)CCN(C2=NCCOc3ccc(-c4ccc(C(F)(F)F)cc4)cc32)C1` [II-6, 5-(3,3-difluoropyrrolidin-1-yl)-7-(4-(trifluoromethyl)phenyl)-2,3-dihydrobenzo[f][1,4]oxazepine] the figure was 7%.
With `FC(F)(F)c1ccc(-c2ccc3c(c2)C(NCc2ncccn2)=NCCO3)cc1` [II-7, N-(pyrimidin-2-ylmethyl)-7-(4-(trifluoromethyl)phenyl)-2,3-dihydrobenzo[f][1,4]oxazepin-5-amine], the inhibition at 1 µM amounted to 14%.
On to `CN(C1=NCCOc2ccc(-c3ccc(C(F)(F)F)cc3)cc21)C1CC1` [II-8, N-cyclopropyl-N-methyl-7-(4-(trifluoromethyl)phenyl)-2,3-dihydrobenzo[f][1,4]oxazepin-5-amine], for which the inhibition at 1 µM turned out to be 13%.
On to `Fc1cccnc1CNC1=NCCOc2ccc(-c3ccc(C(F)(F)F)cc3)cc21` [II-9, N-((3-fluoropyridin-2-yl)methyl)-7-(4-(trifluoromethyl)phenyl)-2,3-dihydrobenzo[f][1,4]oxazepin-5-amine], for which the inhibition at 1 µM stood at 23%.
For the molecule `FC(F)(F)c1ccc(-c2ccc3c(c2)C(NCc2ccccn2)=NCCO3)cc1` [II-10, N-(pyridin-2-ylmethyl)-7-(4-(trifluoromethyl)phenyl)-2,3-dihydrobenzo[f][1,4]oxazepin-5-amine], the inhibition at 1 µM was 32%.
Consider `CC(C)(C)OC(=O)NC1CN(C2=NCCOc3ccc(-c4ccc(C(F)(F)F)cc4)cc32)C1` [II-12, tert-butyl 1-(7-(4-(trifluoromethyl)phenyl)-2,3-dihydrobenzo[f][1,4]oxazepin-5-yl)azetidin-3-ylcarbamate], for which the inhibition at 1 µM was found to be 9%.
To `CC(C)(C)OC(=O)N[C@H]1CCN(C2=NCCOc3ccc(-c4ccc(C(F)(F)F)cc4)cc32)C1` [II-13, (S)-tert-butyl 1-(7-(4-(trifluoromethyl)phenyl)-2,3-dihydrobenzo[f][1,4]oxazepin-5-yl)pyrrolidin-3-ylcarbamate] belongs 15%; to `FC(F)(F)c1ccc(-c2ccc3c(c2)C(NCCn2ccnc2)=NCCO3)cc1` [II-14, N-(2-(1H-imidazol-1-yl)ethyl)-7-(4-(trifluoromethyl)phenyl)-2,3-dihydrobenzo[f][1,4]oxazepin-5-amine], 17%; to `OC[C@H]1CCN(C2=NCCOc3ccc(-c4ccc(C(F)(F)F)cc4)cc32)C1` [II-16, (S)-(1-(7-(4-(trifluoromethyl)phenyl)-2,3-dihydrobenzo[f][1,4]oxazepin-5-yl)pyrrolidin-3-yl)methanol], 13%.
As for `Cn1ccnc1CNC1=NCCOc2ccc(-c3ccc(C(F)(F)F)cc3)cc21` [II-17, N-((1-methyl-1H-imidazol-2-yl)methyl)-7-(4-(trifluoromethyl)phenyl)-2,3-dihydrobenzo[f][1,4]oxazepin-5-amine], the inhibition at 1 µM is 10%.
